Laboratory results as given in PubChem BioAssay AID1845209 (Molecular Pharmacology Branch, DTP, NCI, 2023).
Several values for one entry are separate records, joined by “and”; a condition that tells them apart may be missing. Equal values may be shown once.

System: NCI-H211 tumor spheroids, viability percent test/control
Experiment: Anticancer human tumor NCI-H211 cell line growth inhibition;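 also: spheroids exposed to agents for seven days before readout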
Settings: spheroids with HUVEC and MSC; for viability, T/C: stronger effect = lower value
Description: Multicellular complex tumor spheroid response to DNA repair inhibitors in combination with DNA-damaging drugs
This study explores the anticancer activities of DNA-damaging drugs and inhibitors of DNA damage repair, both as single agents and in combinations. Complex tumor spheroids comprised of malignant cells, endothelial cells and mesenchymal stem cells served as an in vitro model for human solid tumors. This model system incorporates physiologically relevant features and patient-derived or established malignant cell lines with clinically relevant genetic alterations from many tumor types. Twenty-six patient-derived or established malignant cell lines were evaluated representing sarcoma, melanoma, small cell lung cancer (SCLC), non-small cell lung cancer (NSCLC), as well as bladder, ovarian and pancreatic cancers. The concentration ranges selected for each drug and investigational agent were based upon clinically achievable concentrations if the clinical Cmax of the agent was known.
Compounds. The drugs and compounds olaparib (NSC753686), talazoparib (NSC767125), berzosertib (NSC777718), elimusertib (NSC800525), nedisertib (NSC802822), VX-984 (NSC792969), AZD-1390 (NSC803789), temozolomide (NSC362856), topotecan (NSC609699), trabectedin (NSC813783), staurosporine (NSC755774), and gemcitabine (NSC613327) were obtained from the National Cancer Institute (NCI) Developmental Therapeutics Program Chemical Repository. The FDA-approved anticancer drug set is available from the Developmental Therapeutics Program at https://dtp.cancer.gov/organization/dscb/obtaining/available_plates.htm. […] The stock solutions were prepared in dimethyl sulfoxide (DMSO, Sigma-Aldrich, St. Louis, MO, cat. D2650) at 400-fold the tested concentration and stored at -70 degrees C. Prior to their use, the stock solutions were diluted in fresh medium and the final DMSO concentration in the assay was 0.25% (v/v). All drugs and investigational agents were tested over a range starting from a high concentration at or near the clinical Cmax and decreasing in half-log increments. If the clinical Cmax for an agent had not been determined, the highest concentration tested was 10 microM.
Cell Lines. The patient-derived cancer cell (PDC) lines: 156681-154-R-J1-PDC, 283228-195-R-J1-PDC, 287954-098-R-J1-PDC, 292921-168-R-J2-PDC, 349418-098-R-PDC, 425362-245-T-J1-PDC, 556581-035-R-J1-PDC, and BL0293-F563-PDC were received from the NCI Patient-Derived Models Repository (PDMR, https://pdmr.cancer.gov). The established cell lines HS-SY-2 (RRID:CVCL_8719), MPNST, and SYO-1 (RRID:CVCL_7146) were obtained from the Sloan Kettering Institute. The alveolar soft parts sarcoma cell line ASPS-1 (RRID:CVCL_S738) was established at the NCI and grown from internal seed stocks. The following established cell lines were purchased from the American Type Culture Collection (ATCC, Manassas, VA): G-401 (ATCC, cat. CRL-1441, RRID:CVCL_0270), SW982 (ATCC, cat. HTB-93, RRID:CVCL_1734), VA-ES-BJ (ATCC, cat. CRL-2138, RRID:CVCL_1785), NCI-H719 (ATCC, cat. CRL-5837, RRID:CVCL_1582), NCI-H196 (ATCC, cat. CRL-5823, RRID:CVCL_1509), NCI-H841 (ATCC, cat. CRL-5845, RRID:CVCL_1595), NCI-H1618 (ATCC, cat. CRL-5879, RRID:CVCL_1480), NCI-H1876 (ATCC, cat. CRL-5902, RRID:CVCL_1503), DMS 114 (ATCC, cat. CRL-2066; RRID:CVCL_1174), NCI-H211 (ATCC, cat. CRL-5824; RRID:CVCL_1529), and SW 1271 (ATCC, cat. CRL-2177, RRID:CVCL_1716). The small cell lung cancer cell line COR-L88 was purchased from Sigma-Aldrich (cat. 92031917-1VL, RRID:CVCL_1141). The non-small cell lung cancer cell lines NCI-H226 (RRID:CVCL_1544) and NCI-H322M (RRID:CVCL_1557) were established at the NCI and grown from internal seed stocks. Pooled donor human umbilical vein endothelial cells (HUVEC, Lonza, cat. CC-2519) and human mesenchymal stem cells (hMSC, Lonza, cat. PT-2501) were purchased from Lonza (Walkersville, MD).
Cell Culture. All cells were maintained in an incubator at 37 degrees C and 5% CO2 with 95% humidity. […]

[1] = curve of first compound, second compound 1 µM
[2] = curve of first compound, second compound 3.16 µM
[3] = curve of first compound, second compound 10 µM
[4] = curve of first compound, second compound 31.6 µM
[5] = curve of first compound, second compound 100 µM
[6] = second compound 1 µM, first compound 0.0316 µM
[7] = second compound 1 µM, first compound 0.1 µM
[8] = second compound 1 µM, first compound 0.316 µM
[9] = second compound 1 µM, first compound 1 µM
[10] = second compound 1 µM, first compound 3.16 µM
[11] = second compound 1 µM, first compound 10 µM
[12] = second compound 3.16 µM, first compound 0.0316 µM
[13] = second compound 3.16 µM, first compound 0.1 µM
[14] = second compound 3.16 µM, first compound 0.316 µM
[15] = second compound 3.16 µM, first compound 1 µM
[16] = second compound 3.16 µM, first compound 3.16 µM
[17] = second compound 3.16 µM, first compound 10 µM
[18] = second compound 10 µM, first compound 0.0316 µM
[19] = second compound 10 µM, first compound 0.1 µM
[20] = second compound 10 µM, first compound 0.316 µM
[21] = second compound 10 µM, first compound 1 µM
[22] = second compound 10 µM, first compound 3.16 µM
[23] = second compound 10 µM, first compound 10 µM
[24] = second compound 31.6 µM, first compound 0.0316 µM
[25] = second compound 31.6 µM, first compound 0.1 µM
[26] = second compound 31.6 µM, first compound 0.316 µM
[27] = second compound 31.6 µM, first compound 1 µM
[28] = second compound 31.6 µM, first compound 3.16 µM
[29] = second compound 31.6 µM, first compound 10 µM
[30] = second compound 100 µM, first compound 0.0316 µM
[31] = second compound 100 µM, first compound 0.1 µM
[32] = second compound 100 µM, first compound 0.316 µM
[33] = second compound 100 µM, first compound 1 µM
[34] = second compound 100 µM, first compound 3.16 µM
[35] = second compound 100 µM, first compound 10 µM

Row | SMILES | IC50 [1] | IC50 [2] | IC50 [3] | IC50 [4] | IC50 [5] | viability, T/C [6] | viability, T/C [7] | viability, T/C [8] | viability, T/C [9] | viability, T/C [10] | viability, T/C [11] | viability, T/C [12] | viability, T/C [13] | viability, T/C [14] | viability, T/C [15] | viability, T/C [16] | viability, T/C [17] | viability, T/C [18] | viability, T/C [19] | viability, T/C [20] | also measured
1 | [2H]c1nc(C)nc([2H])c1-c1cc(NC[C@@H](C)c2cccc3c(C(=O)NC)ccnc23)ncn1 | – | – | – | – | – | – | – | – | – | – | – | – | – | – | – | – | – | – | – | – | viability, T/C (compound 0.0316 µM): 105% and 102% and 99.5%; viability, T/C (compound 0.1 µM): 103% and 92.2% and 90.7%; viability, T/C (compound 0.316 µM): 111% and 103% and 77.5%; viability, T/C (compound 1 µM): 102% and 99.2% and 90%; viability, T/C (compound 3.16 µM): 105% and 107% and 89.8%; viability, T/C (compound 10 µM): 103% (2×) and 97.1%; IC50 (curve of compound): > 10 µM
2 | [2H]c1nc(C)nc([2H])c1-c1cc(NC[C@@H](C)c2cccc3c(C(=O)NC)ccnc23)ncn1 + Cn1nnc2c(C(N)=O)ncn2c1=O | > 10 µM | > 10 µM | > 10 µM | 3.3 µM | < 0.0316 µM | 97.9% | 96.7% | 93.5% | 95% | 101% | 88.9% | 108% | 113% | 98.7% | 99.7% | 95.3% | 103% | 106% | 105% | 85.5% | viability, T/C [21]: 103%; viability, T/C [22]: 65%; viability, T/C [23]: 82.6%; viability, T/C [24]: 61.5%; viability, T/C [25]: 53.1%; viability, T/C [26]: 49.8%; viability, T/C [27]: 47.5%; viability, T/C [28]: 51.6%; viability, T/C [29]: 18.4%; viability, T/C [30]: 33%; viability, T/C [31]: 21.6%; viability, T/C [32]: 15.9%; viability, T/C [33]: 13.6%; viability, T/C [34]: 11.7%; viability, T/C [35]: 8.11%
3 | COc1cc(C)[nH]c(=O)c1CN1CCc2c(Cl)cc(C(OC)C3COC3)c(Cl)c2C1=O (configuration not stated) + Cn1nnc2c(C(N)=O)ncn2c1=O | > 10 µM | > 10 µM | > 10 µM | 1.33 µM | < 0.0316 µM | 92.7% | 90.4% | 90.6% | 82.7% | 81.3% | 72.8% | 92.6% | 99.3% | 90% | 82.3% | 70.2% | 81.5% | 99.8% | 98.7% | 86.6% | viability, T/C [21]: 86.5%; viability, T/C [22]: 70.2%; viability, T/C [23]: 56.1%; viability, T/C [24]: 56.4%; viability, T/C [25]: 54.6%; viability, T/C [26]: 59.6%; viability, T/C [27]: 56.3%; viability, T/C [28]: 30.8%; viability, T/C [29]: 30.8%; viability, T/C [30]: 31.5%; viability, T/C [31]: 33.4%; viability, T/C [32]: 19.6%; viability, T/C [33]: 13.8%; viability, T/C [34]: 12.6%; viability, T/C [35]: 12%
